Test results as given in US12509431B2, “1,4-dihydroquinazolinone compounds and uses thereof” (Edgewise Therapeutics, Inc., priority 2022, dated 2025).

Legend:
Type in all cases: biochemical
Settings in all cases: Table 8
[1] = tested on: Rabbit Skeletal myofibrils (rabbit psoas muscle); test: Myofibril ATPase assay (PK/LDH NADH-coupled), skeletal myofibrils
Protocol: (§1) Myofibril ATPase assays are known in the art to be useful in evaluating small molecules for the treatment of HCM and other cardiac indications. Myosin ATPase activity is assessed by using a coupled reaction system, in which ADP generated by the myosin ATPase function is coupled to the disappearance of NADH through the pyruvate kinase/lactate dehydrogenase (PK-LDH) system. ATPase activity produces ADP, which is used as a substrate for PK to produce pyruvate and regenerate ATP. The pyruvate is then used as a substrate by LDH to oxidize NADH to NAD+. The rate of the reaction is monitored through the time-dependent disappearance of NADH using absorbance at 340 nm, which, when the couple system is in stoichiometric excess, is directly correlated to the ATPase activity of the myosin. Inhibition of ATPase activity by the assayed compounds is indicated by a reduced rate of NADH loss, relative to vehicle-treated controls, over the experimental time window. Rabbit Skeletal and Porcine Ventricle are the primary sources of myofibril material.
(§2) Materials: The following stock solutions and reagents were used in the Myofibril ATPase Assay:
(§3) Stock Solutions of pCa buffer. Combine PIPES, CaCl2), and EGTA solutions with water. Adjust pH to 7.0 and bring final volume to 100 mL.
(§4) Buffer A & Buffer B. Prepare buffers A and B according to the table below.
(§5) Myofibril ATPase Assay Procedure: BSA, ATP, NADH, PEP, and DTT solutions were thawed at room temperature, then transferred to ice. Pellet-frozen myofibrils were transferred with approximately twice the required volume into a sufficiently large tube and capped. Myofibrils were thawed by rolling in a water bath for approximately 15 min at room temperature and cooled on ice. Buffers A and B were prepared by adjusting volumes as necessary for required number of wells and stored on ice. 0.5 μL of the compounds to be assayed were added into wells. 25 μL of Buffer A was dispensed into the wells, followed by 25 μL of Buffer B. The wells were measured for absorbance at 340 nm, using a kinetic protocol in which the wells are read every 1.5-2 min for 75 min. Assay data analysis was performed using a python script that filtered the raw data to retain those points falling between a starting and ending time and between a maximum and minimum absorbance, then used the filtered time-domain 340 nm absorbance data in each well to calculate a slope via linear regression analysis in units of mAU/min. Compound slopes were normalized between 100% and 0% activity, where 100% represented the slope of wells containing only compound vehicle, and fit to a 4-parameter logistic model. In addition to the fit parameters, the EC25% is calculated, relative to the 100% normalized value. In the case of inhibitors, EC50% is also calculated, if available. Fit parameters, calculated effective concentrations, filtered raw data, and calculated slopes were exported, in addition to compound-specific graphs of normalized ATPase activity versus concentration in μM.
Skeletal Myofibril Isolation:
Myofibrils from various animals and tissue types were acquired from a variety of sources: rabbit psoas muscle was purchased from Pel-Freez Biologicals (Rogers, AR) and porcine cardiac muscle was purchased from Exemplar Genetics. All myofibrils were prepared using a method based upon those described in Herrmann et al. (1993) and summarized here. Minced tissue was homogenized for 50 sec with a Polytron homogenizer into 10 volumes (relative to weight in grams) of Isolation Buffer A (50 mM Tris, pH 8.0, 0.1 M potassium acetate, 5 mM KCl, 2 mM DTT, 5 mM EDTA, 0.5% v/v Triton X-100) supplemented with 0.1 mM PMSF, 10 μM leupeptin, 5 μM pepstatin, and 0.5 mM sodium azide. The myofibrils were recovered by centrifugation (Beckman Allegra 6R, 1200 g, 10 min) and resuspended in 10 volumes Isolation Buffer B (Buffer A above without protease inhibitors or sodium azide). The myofibrils were further homogenized as before and recovered by centrifugation. […]

[2] = molecular target: T1, Porcine Ventricle myofibrils (left ventricle of Yucatan minipigs) (Sus scrofa, UniProt P79293); test: Myofibril ATPase assay (PK/LDH NADH-coupled), ventricle myofibrils
T1 construct: Myofibrils from porcine cardiac muscle was isolated from the left ventricle of Yucatan minipigs; tissue Exemplar Genetics; host or cells: left ventricle of Yucatan minipigs
Protocol: as §1, §2, §3, §4, §5
Cardiac Myofibril Isolation:
Myofibrils from porcine cardiac muscle was isolated from the left ventricle of Yucatan minipigs. Myofibrils were prepared using a method based upon those described in Herrmann et al. (1993) and summarized here. Minced tissue was homogenized for 50 sec with a Polytron homogenizer into 10 volumes (relative to weight in grams) of Isolation Buffer A (75 mM KCl, 10 mM Imidazole, 2 mM MgCl2, 2 mM EGTA, 1 mM NaN3, 1% v/v Triton X-100) supplemented with 4 mM Phosphocreatine, 1 mM ATP, 50 mM BDM, 1 mM DTT, 1 mM Benzamide HCl, 0.1 mM PMSF, 10 μM leupeptin, 5 μM pepstatin, and 10 mM EDTA. The myofibrils were recovered by centrifugation (Beckman Allegra 6R, 1200 g, 15 min) and resuspended in 10 volumes Isolation Buffer B (Buffer A above without supplemental reagents). The myofibrils were further homogenized described above and recovered by centrifugation for 7 mins. Cellular membranes and debris were removed by 3 washes in Isolation Buffer B, centrifuging each as before. […]

[3] = tested on: Porcine Atria myofibrils; test: Myofibril ATPase assay (PK/LDH NADH-coupled), atria myofibrils
Protocol: as §5

T1 sequence (P79293 whole entry): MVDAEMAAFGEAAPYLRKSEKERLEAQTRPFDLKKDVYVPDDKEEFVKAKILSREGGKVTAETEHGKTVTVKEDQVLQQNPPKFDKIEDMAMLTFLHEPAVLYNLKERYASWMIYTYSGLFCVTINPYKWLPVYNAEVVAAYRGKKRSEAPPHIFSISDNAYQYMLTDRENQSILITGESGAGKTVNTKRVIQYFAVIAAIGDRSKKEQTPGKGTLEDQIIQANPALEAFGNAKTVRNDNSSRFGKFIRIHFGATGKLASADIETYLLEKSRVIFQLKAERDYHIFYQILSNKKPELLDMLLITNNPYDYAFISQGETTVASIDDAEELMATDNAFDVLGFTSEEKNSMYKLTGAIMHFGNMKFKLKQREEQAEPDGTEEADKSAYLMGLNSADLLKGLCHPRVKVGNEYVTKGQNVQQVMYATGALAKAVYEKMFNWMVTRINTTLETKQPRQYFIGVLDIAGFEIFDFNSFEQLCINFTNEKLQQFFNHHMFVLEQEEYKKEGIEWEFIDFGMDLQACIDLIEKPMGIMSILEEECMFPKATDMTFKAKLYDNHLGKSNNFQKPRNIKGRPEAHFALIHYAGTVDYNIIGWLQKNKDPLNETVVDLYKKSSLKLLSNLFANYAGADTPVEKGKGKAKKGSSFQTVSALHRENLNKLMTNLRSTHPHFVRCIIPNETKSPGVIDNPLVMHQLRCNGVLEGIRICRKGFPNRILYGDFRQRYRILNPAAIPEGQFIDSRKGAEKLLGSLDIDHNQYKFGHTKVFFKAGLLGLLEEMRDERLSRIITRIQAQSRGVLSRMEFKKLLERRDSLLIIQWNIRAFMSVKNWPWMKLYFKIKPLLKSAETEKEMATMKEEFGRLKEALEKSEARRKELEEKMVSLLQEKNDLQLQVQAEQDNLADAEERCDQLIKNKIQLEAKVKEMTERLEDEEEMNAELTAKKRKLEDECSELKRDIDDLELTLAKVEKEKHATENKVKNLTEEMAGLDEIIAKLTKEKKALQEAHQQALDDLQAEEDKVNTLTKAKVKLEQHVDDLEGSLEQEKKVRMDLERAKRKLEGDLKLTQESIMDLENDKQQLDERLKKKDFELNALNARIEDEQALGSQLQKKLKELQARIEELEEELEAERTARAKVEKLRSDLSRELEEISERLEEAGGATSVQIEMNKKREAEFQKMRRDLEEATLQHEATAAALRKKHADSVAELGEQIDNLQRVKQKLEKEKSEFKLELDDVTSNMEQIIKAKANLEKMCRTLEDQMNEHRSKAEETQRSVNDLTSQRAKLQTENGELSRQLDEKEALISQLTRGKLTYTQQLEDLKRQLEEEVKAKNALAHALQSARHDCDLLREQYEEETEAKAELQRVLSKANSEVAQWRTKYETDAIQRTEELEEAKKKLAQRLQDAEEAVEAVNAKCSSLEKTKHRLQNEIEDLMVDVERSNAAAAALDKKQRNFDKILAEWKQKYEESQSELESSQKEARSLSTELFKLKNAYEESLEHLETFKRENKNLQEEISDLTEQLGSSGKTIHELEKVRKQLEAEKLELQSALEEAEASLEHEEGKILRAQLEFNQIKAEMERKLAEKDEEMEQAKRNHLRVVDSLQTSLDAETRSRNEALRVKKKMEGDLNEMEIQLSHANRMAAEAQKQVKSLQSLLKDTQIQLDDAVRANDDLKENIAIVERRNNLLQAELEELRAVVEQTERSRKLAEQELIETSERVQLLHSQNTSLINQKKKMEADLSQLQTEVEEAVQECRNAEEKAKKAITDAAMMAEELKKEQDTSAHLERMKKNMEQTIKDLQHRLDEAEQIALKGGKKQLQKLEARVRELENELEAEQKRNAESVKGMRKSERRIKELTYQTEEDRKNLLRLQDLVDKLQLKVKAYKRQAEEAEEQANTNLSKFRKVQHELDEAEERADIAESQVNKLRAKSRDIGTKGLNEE

With `C[C@H](NC(=O)CN1C(=O)Nc2ccc(F)c(F)c2[C@@H]1C)c1ccc(F)cc1F` (relative stereo) [Compound B231, 2-[(4S*)-5,6-Difluoro-4-methyl-2-oxo-1,4-dihydroquinazolin-3-yl]-N-[(1S)-1-(2,4-difluorophenyl)ethyl]acetamide] the “Rabbit Psoas IC25” value [1] was 21.07 nM, the “Porcine Ventricle IC25” value [2] was 1558 nM and the “Porcine Atria IC25” value [3] was 210 nM.
`C[C@H](NC(=O)CN1C(=O)Nc2ccc(F)c(F)c2[C@H]1C)c1ccc(F)cc1F` (relative stereo) [Compound B232, 2-[(4R*)-5,6-Difluoro-4-methyl-2-oxo-1,4-dihydroquinazolin-3-yl]-N-[(1S)-1-(2,4-difluorophenyl)ethyl]acetamide] was tested, and the “Rabbit Psoas IC25” value [1] was 32.8 nM, the “Porcine Ventricle IC25” value [2] was 396.3 nM and the “Porcine Atria IC25” value [3] was 40 nM.
With `Cc1cc(C#N)nnc1C(C)NC(=O)CN1Cc2c(ccc(F)c2F)NC1=O` (single isomer, unassigned) [Compound B23] the “Rabbit Psoas IC25” value [1] was 12.4 nM, the “Porcine Ventricle IC25” value [2] was 34.7 nM and the “Porcine Atria IC25” value [3] was 40 nM.
In the case of `Cc1ccnnc1C(C)NC(=O)CN1Cc2c(ccc(F)c2F)NC1=O` (single isomer, unassigned) [Compound B25], the “Rabbit Psoas IC25” value [1] is reported as 4823 nM, the “Porcine Ventricle IC25” value [2] is reported as 2494 nM and the “Porcine Atria IC25” value [3] is reported as 700 nM.
`Cc1cc([C@H](C)NC(=O)CN2Cc3c(ccc(F)c3F)NC2=O)ncc1C#N` (single isomer, unassigned) [Compound B35] was tested, and the “Rabbit Psoas IC25” value [1] was 1252 nM, the “Porcine Ventricle IC25” value [2] was 948 nM and the “Porcine Atria IC25” value [3] was 580 nM.
With `Cc1cnncc1C(C)NC(=O)CN1Cc2c(ccc(F)c2F)NC1=O` (single isomer, unassigned) [Compound B47] the “Rabbit Psoas IC25” value [1] was 100000 nM, the “Porcine Ventricle IC25” value [2] was 96660 nM and the “Porcine Atria IC25” value [3] was 100000 nM.
For `CC(NC(=O)CN1Cc2c(ccc(F)c2F)NC1=O)c1cc(C#N)c(F)cn1` (single isomer, unassigned) [Compound B53], the “Rabbit Psoas IC25” value [1] was 100000 nM, the “Porcine Ventricle IC25” value [2] was 7534 nM and the “Porcine Atria IC25” value [3] was 90 nM.
With `CC(C)C[C@H](C(=O)N[C@H](C)c1ccc(F)cc1F)N1Cc2cc(F)ccc2NC1=O` (single isomer, unassigned) [Compound B67] the “Rabbit Psoas IC25” value [1] was 7017 nM, the “Porcine Ventricle IC25” value [2] was 9364 nM and the “Porcine Atria IC25” value [3] was 43940 nM.
For `Cc1cc(C(C)NC(=O)CN2Cc3c(ccc(F)c3F)NC2=O)ncc1F` (single isomer, unassigned) [Compound B69], the “Rabbit Psoas IC25” value [1] was 3174 nM, the “Porcine Ventricle IC25” value [2] was 298.7 nM and the “Porcine Atria IC25” value [3] was 610 nM.
`CC(NC(=O)CN1Cc2c(ccc(F)c2F)NC1=O)c1cc2c(cn1)OCCN2C` (single isomer, unassigned) [Compound B74] was tested, and the “Rabbit Psoas IC25” value [1] was 100000 nM, the “Porcine Ventricle IC25” value [2] was 100000 nM and the “Porcine Atria IC25” value [3] was 1240 nM.
With `O=C(CN1Cc2c(ccc(F)c2F)NC1=O)NC1COCc2cc(F)ccc21` (single isomer, unassigned) [Compound B76] the “Rabbit Psoas IC25” value [1] was 5359 nM, the “Porcine Ventricle IC25” value [2] was 346.5 nM and the “Porcine Atria IC25” value [3] was 390 nM.
For `O=C(CN1Cc2c(ccc(F)c2F)NC1=O)NC1COc2ccc(F)cc2C1` (single isomer, unassigned) [Compound B87], the “Rabbit Psoas IC25” value [1] was 1110 nM, the “Porcine Ventricle IC25” value [2] was 2048 nM and the “Porcine Atria IC25” value [3] was 190 nM.
For `CC1c2ccccc2NC(=O)N1CC(=O)N[C@@H](CO)c1ccc(F)cc1F` (single isomer, unassigned) [Compound B200, N-[(1R)-1-(2,4-difluorophenyl)-2-hydroxyethyl]-2-[(4R*)-4-methyl-2-oxo-1,4-dihydroquinazolin-3-yl]acetamide], the “Rabbit Psoas IC25” value [1] was 2863 nM, the “Porcine Ventricle IC25” value [2] was 79130 nM and the “Porcine Atria IC25” value [3] was 2450 nM.
`O=C(CN1Cc2c(ccc(F)c2F)NC1=O)N[C@H]1CCc2cc(F)cnc21` (single isomer, unassigned) [Compound B351] was tested, and the “Rabbit Psoas IC25” value [1] was 100000 nM, the “Porcine Ventricle IC25” value [2] was 100000 nM and the “Porcine Atria IC25” value [3] was 100000 nM.
In the case of `Cc1nc([C@@H](C)NC(=O)CN2Cc3c(ccc(F)c3F)NC2=O)ncc1C#N` (single isomer, unassigned) [Compound B352], the “Rabbit Psoas IC25” value [1] is reported as 4450 nM, the “Porcine Ventricle IC25” value [2] is reported as 2360 nM and the “Porcine Atria IC25” value [3] is reported as 610 nM.
In the case of `Cc1nc(C#N)ncc1[C@@H](C)NC(=O)CN1Cc2c(ccc(F)c2F)NC1=O` [Compound B1], the “Rabbit Psoas IC25” value [1] is reported as 20.1 nM, the “Porcine Ventricle IC25” value [2] is reported as 59.9 nM and the “Porcine Atria IC25” value [3] is reported as 90 nM.
With `Cc1nc(C#N)ncc1[C@H](C)NC(=O)CN1Cc2c(ccc(F)c2F)NC1=O` [Compound B2] the “Rabbit Psoas IC25” value [1] was 5739 nM, the “Porcine Ventricle IC25” value [2] was 7734 nM and the “Porcine Atria IC25” value [3] was 960 nM.
For `Cc1nsc([C@H](C)NC(=O)CN2Cc3c(ccc(F)c3F)NC2=O)n1` [Compound B3], the “Rabbit Psoas IC25” value [1] was 100000 nM, the “Porcine Ventricle IC25” value [2] was 52510 nM and the “Porcine Atria IC25” value [3] was 34810 nM.
For `N#Cc1cnc2c(c1)COC[C@H]2NC(=O)CN1Cc2c(ccc(F)c2F)NC1=O` [Compound B4], the “Rabbit Psoas IC25” value [1] was 131.8 nM, the “Porcine Ventricle IC25” value [2] was 116.1 nM and the “Porcine Atria IC25” value [3] was 70 nM.
`N#Cc1cnc2c(c1)COC[C@@H]2NC(=O)CN1Cc2c(ccc(F)c2F)NC1=O` [Compound B5] was tested, and the “Rabbit Psoas IC25” value [1] was 4565 nM, the “Porcine Ventricle IC25” value [2] was 100000 nM and the “Porcine Atria IC25” value [3] was 100000 nM.
`O=C(CN1Cc2c(ccc(F)c2F)NC1=O)N[C@@H]1COc2cc(F)cnc21` [Compound B6] was tested, and the “Rabbit Psoas IC25” value [1] was 123.2 nM, the “Porcine Ventricle IC25” value [2] was 148.3 nM and the “Porcine Atria IC25” value [3] was 70 nM.
In the case of `O=C(CN1Cc2c(ccc(F)c2F)NC1=O)N[C@H]1COc2cc(F)cnc21` [Compound B7], the “Rabbit Psoas IC25” value [1] is reported as 29140 nM, the “Porcine Ventricle IC25” value [2] is reported as 2786 nM and the “Porcine Atria IC25” value [3] is reported as 450 nM.
With `Cc1cc(C#N)cnc1[C@@H](C)NC(=O)CN1Cc2c(ccc(F)c2F)NC1=O` [Compound B8] the “Rabbit Psoas IC25” value [1] was 1018 nM, the “Porcine Ventricle IC25” value [2] was 603.9 nM and the “Porcine Atria IC25” value [3] was 430 nM.
With `Cc1cc(C#N)cnc1[C@H](C)NC(=O)CN1Cc2c(ccc(F)c2F)NC1=O` [Compound B9] the “Rabbit Psoas IC25” value [1] was 22.4 nM, the “Porcine Ventricle IC25” value [2] was 37.9 nM and the “Porcine Atria IC25” value [3] was 40 nM.
`C[C@@H](NC(=O)CN1Cc2c(F)cc(C#N)cc2NC1=O)c1ccc(C#N)cc1F` [Compound B10] was tested, and the “Rabbit Psoas IC25” value [1] was 29080 nM, the “Porcine Ventricle IC25” value [2] was 8204 nM and the “Porcine Atria IC25” value [3] was 100000 nM.
In the case of `C[C@H](NC(=O)CN1Cc2c(F)cc(C#N)cc2NC1=O)c1ccc(C#N)cc1F` [Compound B11, N-[(1S)-1-(4-Cyano-2-fluorophenyl)ethyl]-2-(7-cyano-5-fluoro-2-oxo-1,4-dihydroquinazolin-3-yl)acetamide], the “Rabbit Psoas IC25” value [1] is reported as 49640 nM, the “Porcine Ventricle IC25” value [2] is reported as 100000 nM and the “Porcine Atria IC25” value [3] is reported as 100000 nM.
For `COc1cnc([C@H](C)NC(=O)CN2Cc3cc(F)ccc3NC2=O)c(F)c1` [Compound B179], the “Rabbit Psoas IC25” value [1] was 100000 nM and the “Porcine Ventricle IC25” value [2] was 100000 nM.
